Laboratory results from PubChem BioAssay (NCI).
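Dose response: 5 concentrations. Exposure: 48 h. Format: 96-well plates. Endpoint: linear interpolation; highest concentration if not reached. Here, GI50 denotes the concentration required for 50% inhibition of growth. At the TGI there is no net growth.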

How the values were obtained:
Experiment in all cases: growth of human tumour cells (NCI), 48 h
[1] = system: A549 NSCLC
[2] = system: NCI-H226 lung
[3] = system: SR leukemia
[4] = system: MDA-MB-435
[5] = system: EKVX NSCLC
[6] = system: SN12C renal
[7] = system: SF-268 CNS
[8] = system: HT29 colon
[9] = system: OVCAR-4 ovarian
[10] = system: COLO 205 colon
[11] = system: NCI-H460 lung
[12] = system: BT-549 breast
[13] = system: MALME-3M melanoma
[14] = system: SF-295 CNS
[15] = system: RXF 393 renal
[16] = system: SW-620 colon
[17] = system: SNB-75 CNS
[18] = system: 786-0 renal
[19] = system: LOX IMVI melanoma
[20] = system: OVCAR-5 ovarian
[21] = system: U251 CNS
[22] = system: SK-MEL-28 melanoma
[23] = system: MCF7 breast
[24] = system: HCT-15 colon
[25] = system: T-47D breast
[26] = system: RPMI-8226 leukemia
[27] = system: SK-OV-3 ovarian
[28] = system: DU-145 prostate
[29] = system: IGROV1 ovarian
[30] = system: SF-539 CNS
[31] = system: M14 melanoma
[32] = system: SNB-19 CNS
[33] = system: HCT-116 colon
[34] = system: MDA-MB-231 breast
[35] = system: NCI/ADR-RES ovarian
[36] = system: MOLT-4 leukemia
[37] = system: SK-MEL-2 melanoma
[38] = system: NCI-H23 lung
[39] = system: HL-60(TB) leukemia
[40] = system: HCC-2998 colon
[41] = system: HS 578T breast
[42] = system: K-562 leukemia
[43] = system: UACC-62 melanoma
[44] = system: UACC-257 melanoma
[45] = system: KM12 colon
[46] = system: NCI-H522 lung
[47] = system: OVCAR-3 ovarian
[48] = system: UO-31 renal
[49] = system: HOP-92 NSCLC
[50] = system: CAKI-1 renal
[51] = system: HOP-62 NSCLC
[52] = system: SK-MEL-5 melanoma
[53] = system: OVCAR-8 ovarian
[54] = system: ACHN renal
[55] = system: PC-3 prostate
[56] = system: TK-10 renal
[57] = system: A498 renal

O=C(Nc1ccccc1OC(F)(F)F)Nc1n[nH]c2ccccc12 gave a GI50 [1] of 15.7 µM, a TGI [1] of 60.1 µM and a GI50 [2] of 26.1 µM. It also gave a TGI [2] of over 100 µM, a GI50 [3] of 0.0489 µM and a TGI [3] of 24 µM. For the same compound, the GI50 [4] was 51.5 µM, the TGI [4] was over 100 µM and the GI50 [5] was 48.2 µM. For the same compound, the TGI [5] was over 100 µM, the GI50 [6] was 72.5 µM and the TGI [6] was over 100 µM. The GI50 [7] was 16.2 µM, the TGI [7] was over 100 µM and the GI50 [8] was 26.1 µM. The TGI [8] was over 100 µM, the GI50 [9] was 37.7 µM and the TGI [9] was over 100 µM. It also gave a GI50 [10] of 71.8 µM, a TGI [10] of over 100 µM and a GI50 [11] of 15 µM. For the same compound, the TGI [11] was over 100 µM, the GI50 [12] was 76.4 µM and the TGI [12] was over 100 µM. The GI50 [13] was 76.8 µM, the TGI [13] was over 100 µM and the GI50 [14] was 39 µM. It also gave a TGI [14] of over 100 µM, a GI50 [15] of 24.4 µM and a TGI [15] of over 100 µM. It also gave a GI50 [16] of 36.8 µM, a TGI [16] of over 100 µM and a GI50 [17] of 17.5 µM. It also gave a TGI [17] of 49.8 µM, a GI50 [18] of 38.7 µM and a TGI [18] of over 100 µM. It also gave a GI50 [19] of 22.5 µM, a TGI [19] of over 100 µM and a GI50 [20] of 34.3 µM. For the same compound, the TGI [20] was over 100 µM, the GI50 [21] was 31.1 µM and the TGI [21] was over 100 µM. The GI50 [22] was 42.2 µM, the TGI [22] was over 100 µM and the GI50 [23] was 1.75 µM. For the same compound, the TGI [23] was over 100 µM, the GI50 [24] was 36.2 µM and the TGI [24] was over 100 µM. It also gave a GI50 [25] of 37.5 µM, a TGI [25] of over 100 µM and a GI50 [26] of 5.2 µM. The TGI [26] was 53.1 µM, the GI50 [27] was over 100 µM and the TGI [27] was over 100 µM. The GI50 [28] was 51.7 µM, the TGI [28] was over 100 µM and the GI50 [29] was 4.59 µM. For the same compound, the TGI [29] was 83.6 µM, the GI50 [30] was 30.5 µM and the TGI [30] was over 100 µM. For the same compound, the GI50 [31] was 25.5 µM, the TGI [31] was over 100 µM and the GI50 [32] was 78.3 µM. For the same compound, the TGI [32] was over 100 µM, the GI50 [33] was 16.2 µM and the TGI [33] was over 100 µM. The GI50 [34] was 17.9 µM, the TGI [34] was over 100 µM and the GI50 [35] was 44.2 µM. For the same compound, the TGI [35] was over 100 µM, the GI50 [36] was 5.91 µM and the TGI [36] was over 100 µM. For the same compound, the GI50 [37] was 81.4 µM, the TGI [37] was over 100 µM and the GI50 [38] was 50 µM. The TGI [38] was over 100 µM, the GI50 [39] was 17.9 µM and the TGI [39] was over 100 µM. It also gave a GI50 [40] of 55.9 µM, a TGI [40] of over 100 µM and a GI50 [41] of 19.4 µM. It also gave a TGI [41] of over 100 µM, a GI50 [42] of 47.2 µM and a TGI [42] of over 100 µM. The GI50 [43] was 31.7 µM, the TGI [43] was over 100 µM and the GI50 [44] was 47.2 µM. For the same compound, the TGI [44] was over 100 µM, the GI50 [45] was 23.4 µM and the TGI [45] was over 100 µM. The GI50 [46] was 33.9 µM, the TGI [46] was over 100 µM and the GI50 [47] was 90.8 µM. For the same compound, the TGI [47] was over 100 µM, the GI50 [48] was 17.4 µM and the TGI [48] was over 100 µM. The GI50 [49] was 12.9 µM, the TGI [49] was 83.2 µM and the GI50 [50] was 31 µM. The TGI [50] was over 100 µM, the GI50 [51] was 19.6 µM and the TGI [51] was 73.4 µM. For the same compound, the GI50 [52] was 28.7 µM, the TGI [52] was over 100 µM and the GI50 [53] was 29.6 µM. For the same compound, the TGI [53] was over 100 µM, the GI50 [54] was 31.1 µM and the TGI [54] was over 100 µM. For the same compound, the GI50 [55] was 31.4 µM, the TGI [55] was over 100 µM and the GI50 [56] was 37.9 µM. The TGI [56] was over 100 µM, the GI50 [57] was over 100 µM and the TGI [57] was over 100 µM.
